Data as given in patent US20250361241A1, “HPK1 INHIBITOR AND MEDICAL USE THEREOF” (Betta Pharmaceuticals Co., Ltd., priority 2022, published 2025).
Where “and” joins values, the source holds several entries; their conditions need not be identical. Equal values may be shown once.

Tests used:
HPK1 = HPK1 (Homo sapiens (Human), UniProt Q92918); assay: HPK1 enzyme activity detection (1 mM ATP system), ADP-Glo with MBP substrate, Pharmacological Experiment 2; assay type: biochemical
Description: (§1) Pharmacological Experiment 2: […] The test compound was serially diluted using DMSO to 200 times the detection concentration. […] Centrifuge at 1000×g for 30 seconds and incubate at 25° C. for 15 minutes. • (5) Adding ATP and substrate: Add 2 μL of 2×ATP-MBP solution to the 384-well plate and centrifuge at 1000×g for 30 seconds. Seal the plate with a sealing film and incubate at 25° C. for 60 minutes. • (6) Add ADP-Glo reagent: Add 4 μL ADP-Glo reagent (Promega, V9103) to the 384-well plate, centrifuge at 1000×g for 30 seconds, and incubate at 25° C. for 60 minutes. • (7) Detection of luminescent signal; Add 8 μL of luminescent detection reagent (Promega, V9103) to a 384-well plate, centrifuge at 1000×g for 30 seconds, and incubate at 25° C. for 60 minutes. The chemiluminescent signal was read using a BMG instrument. • (8) Calculation of percentage inhibition rate: […] See Table 2 for the enzymatic IC 50 data of the example compounds on HPK1.

GLK = GLK (Homo sapiens (Human), UniProt Q8IVH8); assay: GLK kinase assay (1 mM ATP system), ADP-Glo; assay type: biochemical
Sequence of GLK (Q8IVH8 whole entry, species assumed): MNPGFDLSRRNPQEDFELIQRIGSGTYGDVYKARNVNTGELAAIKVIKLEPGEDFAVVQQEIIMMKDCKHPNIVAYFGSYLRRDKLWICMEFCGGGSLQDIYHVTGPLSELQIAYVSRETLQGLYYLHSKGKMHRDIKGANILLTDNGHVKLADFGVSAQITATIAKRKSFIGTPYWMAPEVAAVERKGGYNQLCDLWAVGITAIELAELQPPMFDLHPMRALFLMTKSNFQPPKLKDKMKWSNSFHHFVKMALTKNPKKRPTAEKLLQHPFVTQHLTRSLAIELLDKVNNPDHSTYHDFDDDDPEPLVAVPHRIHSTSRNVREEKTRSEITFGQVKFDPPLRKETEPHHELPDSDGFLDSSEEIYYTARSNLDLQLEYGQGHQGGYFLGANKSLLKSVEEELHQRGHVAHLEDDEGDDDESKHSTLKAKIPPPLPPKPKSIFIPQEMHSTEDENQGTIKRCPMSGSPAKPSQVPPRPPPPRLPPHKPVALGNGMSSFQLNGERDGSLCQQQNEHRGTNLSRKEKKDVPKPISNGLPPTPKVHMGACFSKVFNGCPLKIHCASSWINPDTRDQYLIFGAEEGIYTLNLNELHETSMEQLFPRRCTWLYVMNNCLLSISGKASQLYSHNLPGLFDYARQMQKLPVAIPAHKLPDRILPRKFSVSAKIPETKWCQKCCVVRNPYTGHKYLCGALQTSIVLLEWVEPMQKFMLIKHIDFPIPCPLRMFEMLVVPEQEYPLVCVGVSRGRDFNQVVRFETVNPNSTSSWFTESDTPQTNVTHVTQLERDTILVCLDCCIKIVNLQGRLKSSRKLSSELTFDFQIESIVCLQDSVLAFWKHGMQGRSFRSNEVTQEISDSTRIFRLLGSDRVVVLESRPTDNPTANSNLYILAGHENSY
Description: as §1, with “Solution” for “Pharmacological Experiment 2:”, “Add” for “Adding”, “signal:” for “signal;”, “microplate reader.” for “instrument.”, “GLK kinase IC50” for “enzymatic IC 50”

Sequence of HPK1 (Q92918 whole entry, species assumed): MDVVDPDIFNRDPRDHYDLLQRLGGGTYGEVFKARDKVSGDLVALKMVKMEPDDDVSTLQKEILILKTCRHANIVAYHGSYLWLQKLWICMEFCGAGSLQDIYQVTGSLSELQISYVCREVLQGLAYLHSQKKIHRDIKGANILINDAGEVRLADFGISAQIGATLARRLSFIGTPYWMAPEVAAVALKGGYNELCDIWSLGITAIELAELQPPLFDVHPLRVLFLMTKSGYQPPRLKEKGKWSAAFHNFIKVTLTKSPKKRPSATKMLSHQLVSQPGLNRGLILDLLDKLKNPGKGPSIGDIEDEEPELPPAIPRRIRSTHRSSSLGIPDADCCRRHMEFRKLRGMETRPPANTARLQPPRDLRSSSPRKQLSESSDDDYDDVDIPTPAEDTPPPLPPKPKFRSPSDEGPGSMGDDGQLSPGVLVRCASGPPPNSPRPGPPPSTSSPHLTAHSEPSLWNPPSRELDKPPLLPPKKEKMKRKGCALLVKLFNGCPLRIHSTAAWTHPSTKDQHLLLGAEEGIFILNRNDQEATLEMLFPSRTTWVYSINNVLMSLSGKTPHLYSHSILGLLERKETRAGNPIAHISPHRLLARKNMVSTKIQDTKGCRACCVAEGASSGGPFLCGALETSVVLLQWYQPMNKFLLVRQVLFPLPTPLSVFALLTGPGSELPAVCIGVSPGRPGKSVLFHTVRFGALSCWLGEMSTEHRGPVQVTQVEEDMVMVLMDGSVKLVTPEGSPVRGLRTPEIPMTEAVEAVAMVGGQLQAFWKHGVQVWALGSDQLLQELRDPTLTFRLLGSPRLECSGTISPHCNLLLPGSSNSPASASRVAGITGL

Structure (SMILES) | IC50 (HPK1) | IC50 (GLK) [nM]
CN(C)C1CC2(CCOCC2)c2ccc(Nc3ccc(-c4cnc5c(F)c(F)ccn45)c4c3C(=O)NC4)nc21 (centres unmarked) [Compound 43, 4-(7,8-DIFLUOROIMIDAZO[1,2-A]PYRIDIN-3-YL)-7-((7-(DIMETHYLAMINO)-2′,3′,5′,6,6′,7-HEXAHYDROSPIRO [B]PYRIDIN-5,4′-PYRAN]-2-YL)AMINO)ISOINDOL-1-ONE] | 4.22 nM | 657
CN(C)C1CC2(CCOCC2)c2ccc(Nc3ccc(-c4cnc5cc(N)ccn45)c4c3C(=O)NC4)nc21 (centres unmarked) [Compound 174, 4-(7-AMINOIMIDAZO[1,2-A]PYRIDIN-3-YL)-7-((7-(DIMETHYLAMINO)-2′,3′,5′,6,6′,7-HEXAHYDROSPIRO[CY CLOPENTADIENYL[B]PYRIDINE-54′-PYRAN]-2-YL)AMINO)ISOINDOL-1-ONE] | 19.2 nM | 566
Cc1cc(Nc2ccc(-c3cnn4ccccc34)c3c2C(=O)NC3)nc2c1C1(CCOCC1)C[C@H]2N(C)C [Compound 48] | 2.06 nM | 8.81
CC(C)N(C)C1CC2(CCOCC2)c2ccc(Nc3ccc(-c4cnc5cc(F)ccn45)c4c3C(=O)NC4)nc21 (centres unmarked) [Compound 85, 4-(7-FLUOROIMIDAZO[1,2-A]PYRIDIN-3-YL)-7-((7-(ISOPROPYL(METHYL)AMINO)-2′,3′,5′,6,6′,7-HEXAHYDRO SPIRO[CYCLOPENTYL[B]PYRIDIN-5,4′-PYRAN]-2-YL)AMINO)ISOINDOL-1-ONE] | 5.19 nM | 831
CN(C)C1CC2(CCOCC2)c2ccc(Nc3ccc(-c4cnc5cc(C#N)ccn45)c4c3C(=O)NC4)nc21 (centres unmarked) [Compound 157, 3-(7-((7-(DIMETHYLAMINO)-2′,3′,5′,6,6′,7-HEXAHYDROSPIRO]CYCLOPENTANE[B]PYRIDINE-5,4′-PYRAN]-2-YL)AMINO)-1-OXOISOINDOL-4-YL)IMIDAZO[1,2-A]PYRIDINE-7-CARBONITRILE] | 5.9 nM | 877
CNC1CC2(CCOCC2)c2ccc(Nc3ccc(-c4cnc5cc(F)ccn45)c4c3C(=O)NC4)nc21 (centres unmarked) [Compound 60, 4-(7-FLUOROIMIDAZO[1,2-A]PYRIDIN-3-YL)-7-((7-(METHYLAMINO)-2′,3′,5′,6,6′,7-HEXAHYDROSPIRO[B]PYRIDIN-5,4′-PYRAN]-2-YL)AMINO)ISOINDOL-1-ONE] | 2.14 nM | 123
O=C1NCc2c(-c3cnn4c3CCCC4)ccc(Nc3ccc4c(n3)CNCC43CCOCC3)c21 [Compound 154] | 10.9 nM | 646
O=C1NCc2c(-c3cnc4n3CCCC4)ccc(Nc3ccc4c(n3)CCCC43CCOCC3)c21 [Compound 167] | 25.3 nM | 1370
O=C1NCc2c(-c3cnc4cc(F)ccn34)ccc(Nc3ccc4c(n3)C(NC3CCCC3)CC43CCOCC3)c21 (centres unmarked) [Compound 109] | 5.97 nM | 791
O=C1NCc2c(-c3cnc4cc(F)ccn34)ccc(Nc3ccc4c(n3)C(N3CCOCC3)CC43CCOCC3)c21 (centres unmarked) [Compound 59, 4-(7-FLUOROIMIDAZO[1,2-A]PYRIDIN-3-YL)-7-(7-MORPHOLIN-2′,3′,5′,6,6′,7-HEXAHYDROSPIRO[B]PYRIDIN-5,4′-PYRAN]-2-YL)AMINO)ISOINDOL-1-ONE] | 6.09 nM | > 30000
Cc1cc(Nc2ccc(-c3cnc4ccccn34)c3c2C(=O)NC3)nc2c1C1(CCOCC1)C[C@H]2N(C)C [Compound 47] | 1.51 nM | 30.3
CN(C)C1CC2(CCOCC2)c2ccc(Nc3ccc(-c4cnc5cc(C(F)F)ccn45)c4c3C(=O)NC4)nc21 (centres unmarked) [Compound 160, 4-(7-(DIFLUOROMETHYL)IMIDAZO[1,2-A]PYRIDIN-3-YL)-7-((7-(METHYLAMINO)-2′,3′,5′,6,6′,7-HEXAHYDRO SPIRO[CYCLOPENTANE[B]PYRIDINE-5,4′-PYRAN]-2-YL)AMINO)ISOINDOL-1-ONE] | 6.57 nM | 460
O=C1NCc2c(-c3cnc4cc(OC(F)F)ccn34)ccc(Nc3ccc4c(n3)C(NC3CC3)CC43CCOCC3)c21 (centres unmarked) [Compound 178, 7-((7-(CYCLOPROPYLAMINO)-2′,3′,5′,6,6′,7-HEXAHYDROSPIRO[CYCLOPENTADIENYL[B]PYRIDINE-54′-PYRAN]-2-YL)AMINO)-4-(7-(DIFLUOROMETHOXY)IMIDAZO[1,2-A]PYRIDIN-3-YL)ISOINDOLIN-1-ONE] | 13.7 nM | 1240
CN(C)C1CC2(CCOCC2)c2ccc(Nc3ccc(-c4cnc5cc(CO)ccn45)c4c3C(=O)NC4)nc21 (centres unmarked) [Compound 41, 7-((7-(DIMETHYLAMINO)-2′,3′,5′,6,6′,7-HEXAHYDROSPIRO[B]PYRIDIN-5,4′-PYRAN]-2-YL)AMINO)-4-(7-(HYDROXYMETHYL)IMIDAZO[1,2-A]PYRIDIN-3-YL)ISOINDOL-1-ONE] | 3.76 nM | 70.7
CN(C)C1CC2(CCOCC2)c2ccc(Nc3ccc(-c4cnn5cccnc45)c4c3C(=O)NC4)nc21 (centres unmarked) [Compound 38] | 2.92 nM | 232
CN(C)C1CCC2(CCOCC2)c2ccc(Nc3ccc(-c4ccnc5c4ccn5C)c4c3C(=O)NC4)nc21 (centres unmarked) [Compound 34] | 8.18 nM | 779
CN1CCN(C2CC3(CCOCC3)c3ccc(Nc4ccc(-c5cnc6cc(F)ccn56)c5c4C(=O)NC5)nc32)CC1 (centres unmarked) [Compound 91] | 86.2 nM | > 30000

Structure (SMILES) | IC50 (HPK1) | IC50 (GLK) [nM]
CN(C)C1CCC2(CCOCC2)c2ccc(Nc3ccc(-c4cnc5cc(F)ccn45)c4c3C(=O)NC4)nc21 (centres unmarked) [Compound 3] | 4.16 nM | 2860
O=C1NCc2c(-c3cnc4cc(OC(F)F)ccn34)ccc(Nc3ccc4c(n3)C(N3CCCC3)CC43CCOCC3)c21 (centres unmarked) [Compound 169, 4-(7-(DIFLUOROMETHOXY)IMIDAZO[1,2-A]PYRIDIN-3-YL)-7-((7-(PYRROLIDIN-1-YL)-2′,3′,5′,6,6′,7-HEXAHYDROSPIRO[CYCLOPENTA[B]PYRIDINE-5,4′-PYRAN]-2-YL)AMINO)ISOINDOL-1-ONE] | 9.19 nM | 223
O=C1NCc2c(-c3cnc4cc(F)ccn34)ccc(Nc3ccc4c(n3)C(N3C[C@H]5C[C@@H]3CO5)CC43CCOCC3)c21 (some centres unmarked) [Compound 110] | 2.67 nM | 317
O=C1NCc2c(-c3cnc4cc(F)ccn34)ccc(Nc3ccc4c(n3)C(N3CCC(F)(F)CC3)CC43CCOCC3)c21 (centres unmarked) [Compound 98] | 12.4 nM | > 30000
CCN1Cc2nc(Nc3ccc(-c4cnc5cc(F)ccn45)c4c3C(=O)NC4)ccc2C2(CCOCC2)C1 [Compound 124] | 8.47 nM | 2760
Cc1cc(Nc2ccc(-c3cnn4cc(F)ccc34)c3c2C(=O)NC3)nc2c1C1(CCOCC1)C[C@H]2N(C)C [Compound 29] | 1.98 nM | 9.77
CC(C)N1Cc2nc(Nc3ccc(-c4cnc5cc(F)ccn45)c4c3C(=O)NC4)ccc2C2(CCOCC2)C1 [Compound 119] | 29.8 nM | > 3000
CO[C@H]1CCN(C2CC3(CCOCC3)c3ccc(Nc4ccc(-c5cnc6cc(F)ccn56)c5c4C(=O)NC5)nc32)C1 (some centres unmarked) [Compound 76] | 3.55 nM | 286
CN(C)C1CC2(CCOCC2)c2ccc(Nc3ccc(-c4cnn5ccccc45)c4c3C(=O)NC4)nc21 (centres unmarked) [Compound 37] | 2.25 nM | 158
COC1(C)CCN(C2CC3(CCOCC3)c3ccc(Nc4ccc(-c5cnc6cc(F)ccn56)c5c4C(=O)NC5)nc32)CC1 (centres unmarked) [Compound 94] | 9.27 nM | 4530
O=C1NCc2c(-c3cnc4n3CCOC4)ccc(Nc3ccc4c(n3)CNCC43CCOCC3)c21 [Compound 153] | 34.5 nM | 2170
O=C1NCc2c(-c3cnc4cc(F)ccn34)ccc(Nc3ccc4c(n3)C(N3CC[C@H](F)C3)CC43CCOCC3)c21 (some centres unmarked) [Compound 74] | 3.02 nM | 299
CN(C)C1CCC2(CCOCC2)c2ccc(Nc3ccc(-c4cnn5ccccc45)c4c3C(=O)NC4)nc21 (centres unmarked) [Compound 33] | 4.76 nM | 631
O=C1NCc2c(-c3cnc4cc(F)ccn34)ccc(Nc3ccc4c(n3)C(N3CCC3)CC43CCOCC3)c21 (centres unmarked) [Compound 39, 7-(7-(AZETIDIN-1-YL)-2′,3′,5′,6,6′,7-HEXAHYDROSPIRO[B]PYRIDINE-5,4′-PYRAN]-2-YL)AMINO)-4-(7-FLUOROIMIDAZO[1,2-A]PYRIDIN-3-YL)ISOINDOL-1-ONE] | 3.7 nM and 2.78 nM | 88.2
N#Cc1ccn2c(-c3ccc(Nc4ccc5c(n4)C(N4CCCC4)CC54CCOCC4)c4c3CNC4=O)cnc2c1 (centres unmarked) [Compound 168, 3-(1-OXO-7-((7-(PYRROLIDIN-1-YL)-2′,3′,5′,6,6′,7-HEXAHYDROSPIRO[CYCLOPENTA[B]PYRIDINE-5,4′-PYRAN]-2-YL)AMINO)ISOINDOL-4-YL)IMIDAZO[1,2-A]PYRIDINE-7-CARBONITRILE] | 5.27 nM | 289
COC1(C)CN(C2CC3(CCOCC3)c3ccc(Nc4ccc(-c5cnc6cc(F)ccn56)c5c4C(=O)NC5)nc32)C1 (centres unmarked) [Compound 70] | 2.99 nM | 188
CN(C)C1CCC2(CCOCC2)c2ccc(Nc3ccc(-c4cnn5cc(F)ccc45)c4c3C(=O)NC4)nc21 (centres unmarked) [Compound 32] | 4.52 nM | 596
